pEC50: −log10 of the molar value.
Target: T1, human GLP-1 receptor (Homo sapiens, UniProt P43220)
T1 construct: expressed in transfected cells
Experiment: GLP-1R cAMP assay (cAMP accumulation in CHO cells stably overexpressing the human GLP-1 receptor, HitHunter kit)
Type: cell-based
Conditions: CHO cells stably overexpressing human GLP-1R, 30 min, 20-point dose response in triplicate
In short: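 CHO cells stably expressing the human receptor (10,000/well) in HBSS with 10 mM HEPES and 625 μM IBMX, given compound as a 20-point dose response in triplicate for 30 min. cAMP was read by luminescent enzyme-complementation detection after overnight incubation, and EC50 was fitted from dose-response curves.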

T1 sequence (P43220 24-463): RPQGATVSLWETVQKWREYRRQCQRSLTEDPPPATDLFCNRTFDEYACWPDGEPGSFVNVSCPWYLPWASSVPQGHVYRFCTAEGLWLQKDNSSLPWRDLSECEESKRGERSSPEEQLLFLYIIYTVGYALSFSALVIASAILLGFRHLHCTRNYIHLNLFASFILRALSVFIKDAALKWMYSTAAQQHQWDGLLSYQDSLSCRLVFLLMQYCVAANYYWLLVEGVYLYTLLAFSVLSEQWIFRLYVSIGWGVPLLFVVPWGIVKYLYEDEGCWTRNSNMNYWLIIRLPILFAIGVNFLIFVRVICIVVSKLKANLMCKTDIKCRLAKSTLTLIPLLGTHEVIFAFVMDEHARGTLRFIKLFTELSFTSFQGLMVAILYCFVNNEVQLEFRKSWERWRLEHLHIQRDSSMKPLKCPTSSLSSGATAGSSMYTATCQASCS

Row | SMILES | pEC50
1 | O=C(O)c1cc(F)c2nc(CN3CCC(Oc4ccnc(COc5ncc(F)cc5F)n4)CC3)n(C[C@@H]3CCO3)c2c1 [Compound 628, (S)-2-((4-((2-(((3,5-difluoropyridin-2-yl)oxy)methyl)pyrimidin-4-yl)oxy)piperidin-1-yl)methyl)-4-fluoro-1-(oxetan-2-ylmethyl)-1H-benzo[d]imidazole-6-carboxylic acid] | 9.00 to 10.00
2 | C[C@H]1C[C@@H](Oc2ccnc(COc3ncc(F)cc3C#N)n2)CCN1Cc1nc2c(F)cc(C(=O)O)cc2n1C[C@@H]1CCO1 [Compound 629, 2-(((2S,4S)-4-((2-(((3-cyano-5-fluoropyridin-2-yl)oxy)methyl)pyrimidin-4-yl)oxy)-2-methylpiperidin-1-yl)methyl)-4-fluoro-1-(((S)-oxetan-2-yl)methyl)-1H-benzo[d]imidazole-6-carboxylic acid] | > 10.00
3 | C[C@H]1C[C@@H](Oc2ccnc(COc3ncc(F)cc3C#N)n2)CCN1Cc1nc2ccc(C(=O)O)cc2n1C[C@@H]1CCO1 [Compound 630, 2-(((2S,4S)-4-((2-(((3-Cyano-5-fluoropyridin-2-yl)oxy)methyl)pyrimidin-4-yl)oxy)-2-methylpiperidin-1-yl)methyl)-1-(((S)-oxetan-2-yl)methyl)-1H-benzo[d]imidazole-6-carboxylic acid] | 9.00 to 10.00
4 | C[C@H]1C[C@@H](Oc2ccnc(COc3ncc(C#N)cc3F)n2)CCN1Cc1nc2ccc(C(=O)O)cc2n1C[C@@H]1CCCO1 [Compound 631, 2-(((2S,4S)-4-((2-(((5-cyano-3-fluoropyridin-2-yl)oxy)methyl)pyrimidin-4-yl)oxy)-2-methylpiperidin-1-yl)methyl)-1-(((S)-tetrahydrofuran-2-yl)methyl)-1H-benzo[d]imidazole-6-carboxylic acid] | 9.00 to 10.00
5 | C[C@H]1C[C@@H](Oc2ccnc(COc3ncc(F)cc3F)n2)CCN1Cc1nc2ccc(C(=O)O)cc2n1C[C@@H]1CCCO1 [Compound 632, 2-(((2S,4S)-4-((2-(((3,5-Difluoropyridin-2-yl)oxy)methyl)pyrimidin-4-yl)oxy)-2-methylpiperidin-1-yl)methyl)-1-(((S)-tetrahydrofuran-2-yl)methyl)-1H-benzo[d]imidazole-6-carboxylic acid] | 9.00 to 10.00
6 | C[C@H]1C[C@@H](Oc2ccnc(COc3ccc(F)cc3F)n2)CCN1Cc1nc2ccccc2n1C[C@@H]1CCO1 [Compound 633, 2-(((2S,4S)-4-((2-((2,4-Difluorophenoxy)methyl)pyrimidin-4-yl)oxy)-2-methylpiperidin-1-yl)methyl)-1-(((S)-oxetan-2-yl)methyl)-1H-benzo[d]imidazole] | 7.00 to 8.00
7 | N#Cc1cnc(OCc2nccc(OC3CCN(Cc4nc5c(F)cc(C(=O)O)cc5n4C[C@@H]4CCO4)CC3)n2)c(F)c1 [Compound 634] | 9.00 to 10.00
8 | C[C@H]1C[C@@H](Oc2ccnc(COc3ncc(C#N)cc3F)n2)CCN1Cc1nc2ccc(C(=O)O)cc2n1CCOCC(F)(F)F [Compound 635, 2-(((2S,4S)-4-((2-(((5-Cyano-3-fluoropyridin-2-yl)oxy)methyl)pyrimidin-4-yl)oxy)-2-methylpiperidin-1-yl)methyl)-1-(2-(2,2,2-trifluoroethoxy)ethyl)-1H-benzo[d]imidazole-6-carboxylic acid] | 9.00 to 10.00
9 | C[C@H]1C[C@@H](Oc2ccnc(COc3ncc(C#N)cc3F)n2)CCN1Cc1nc2c(F)cc(C(=O)O)cc2n1CCOCC(F)(F)F [Compound 636, 2-(((2S,4S)-4-((2-(((5-cyano-3-fluoropyridin-2-yl)oxy)methyl)pyrimidin-4-yl)oxy)-2-methylpiperidin-1-yl)methyl)-4-fluoro-1-(2-(2,2,2-trifluoroethoxy)ethyl)-1H-benzo[d]imidazole-6-carboxylic acid] | 9.00 to 10.00
10 | C[C@H]1C[C@@H](Oc2ccnc(COc3ccc(F)cc3F)n2)CCN1Cc1nc2ccc(CC(=O)O)cc2n1C[C@@H]1CCO1 [Compound 637, 2-(2-(((2S,4S)-4-((2-((2,4-difluorophenoxy)methyl)pyrimidin-4-yl)oxy)-2-methylpiperidin-1-yl)methyl)-1-(((S)-oxetan-2-yl)methyl)-1H-benzo[d]imidazol-6-yl) acetic acid] | 8.00 to 9.00
11 | C[C@H]1C[C@@H](Oc2ccnc(COc3ccc(F)cc3F)n2)CCN1Cc1nc2ccc(C(=O)Nc3cccnc3)cc2n1C[C@@H]1CCO1 [Compound 638, 2-(((2S,4S)-4-((2-((2,4-Difluorophenoxy)methyl)pyrimidin-4-yl)oxy)-2-methylpiperidin-1-yl)methyl)-1-(((S)-oxetan-2-yl)methyl)-N-(pyridin-3-yl)-1H-benzo[d]imidazole-6-carboxamide] | 7.00 to 8.00
12 | C[C@H]1C[C@@H](Oc2ccnc(COc3ccc(F)cc3F)n2)CCN1Cc1nc2ccc(CO)cc2n1C[C@@H]1CCO1 [Compound 639, (2-(((2S,4S)-4-((2-((2,4-difluorophenoxy)methyl)pyrimidin-4-yl)oxy)-2-methylpiperidin-1-yl)methyl)-1-(((S)-oxetan-2-yl)methyl)-1H-benzo[d]imidazol-6-yl)methanol] | 7.00 to 8.00
13 | N#Cc1ccc(OCc2nccc(O[C@H]3CC[C@H](Cc4nc5ccc(C(=O)O)cc5n4C[C@@H]4CCO4)CC3)n2)c(F)c1 [Compound 640, 1-{[(2S)-oxetan-2-yl]methyl}-2-{[(1r,4r)-4-({2-[(4-cyano-2-fluorophenoxy)methyl]pyrimidin-4-yl}oxy)cyclohexyl]methyl}-1H-1,3-benzodiazole-6-carboxylic acid] | > 10.00
14 | N#Cc1ccc(OCc2nccc(O[C@H]3CC[C@@H](Cc4nc5ccc(C(=O)O)cc5n4C[C@@H]4CCO4)CC3)n2)c(F)c1 [Compound 641, 1-{[(2S)-oxetan-2-yl]methyl}-2-{[(1s,4s)-4-({2-[(4-cyano-2-fluorophenoxy)methyl]pyrimidin-4-yl}oxy)cyclohcxyl]methyl}-1H-1,3-benzodiazole-6-carboxylic acid] | 6.30 to 7.00
